Reference: patent US8912121B2, “Herbicidal compositions comprising 4-amino-3-chloro-5-fluoro-6-(4-chloro-2-fluoro-3-methoxyphenyl)pyridine-2-carboxylic acid or a derivative thereof and certain PS II inhibitors” (Dow Agrosciences LLC, priority 2012, dated 2014)

How the values were obtained:
[1] = system: SETFA (Setaria faberi, giant foxtail); assay: Pre-emergence soil-applied mixtures, greenhouse; assay type: in vivo, Setaria faberi Herrm.; details: for Visual Weed Control (%) Obs: 27 DAA
Source text: (§1) Seeds or nutlets of the desired test plant species were planted in a soil matrix prepared by mixing a loam soil (32 percent silt, 23 percent clay, and 45 percent sand, with a pH of about 6.5 and an organic matter content of about 1.9 percent) and calcareous grit in an 80 to 20 ratio. The soil matrix was contained in plastic pots with a volume of 1 quart and a surface area of 83.6 square centimeters (cm^2).
(§2) Treatments consisted of the benzyl ester of 4-amino-3-chloro-5-fluoro-6-(4-chloro-2-fluoro-3-methoxy-phenyl)pyridine-2-carboxylic acid (compound A) formulated as an SC (suspension concentrate) and various herbicidal components alone and in combination. Forms of compound A were applied on an acid equivalent basis.
(§3) Other herbicidal components were applied on an acid equivalent or active ingredient basis and included the PSII-inhibiting herbicides, atrazine formulated as Atrazine® 90WDG, metribuzin formulated as Metribuzin 75DF, simazine formulated as Princep Caliber 90, tebuthiuron formulated as Spike 80DF, cyanazine (technical grade material), hexazinone (technical grade material), linuron (technical grade material), terbuthylazine (technical grade material), and diuron formulated as Diuron 4L.
(§4) Treatment requirements were calculated based upon the rates being tested, the concentration of active ingredient or acid equivalent in the formulation, and a 12 mL application volume at a rate of 187 L/ha.
(§5) For treatments comprised of formulated compounds, measured amounts of compounds were placed individually in 25 mL glass vials and diluted in a volume of 1.25% (v/v) Agri-Dex® crop oil concentrate (COC) to obtain 12× stock solutions. […] Application solutions were prepared by adding an appropriate amount of each stock solution (e.g., 1 mL) and diluted to the appropriate final concentrations with the addition of 10 mL of an aqueous mixture of 1.25% (v/v) COC so that the final spray solutions contained 1.25% (v/v) COC.
(§6) For treatments comprised of technical compounds, weighed amounts can be placed individually in 25 mL glass vials and dissolved in a volume of 97:3 (v/v) acetone/DMSO to obtain 12× stock solutions. […] Application solutions can be prepared by adding an appropriate amount of each stock solution (e.g., 1 mL) and diluted to the appropriate final concentrations with the addition of 10 mL of an aqueous mixture of 1.5% (v/v) COC so that the final spray solutions contain 1.25% (v/v) COC. When technical materials are used, the concentrated stock solutions can be added to the spray solutions so that the final acetone and DMSO concentrations of the application solutions are 16.2% and 0.5%, respectively.
(§7) For treatments comprised of formulated and technical compounds, weighed amounts of the technical materials can be placed individually in 25 mL glass vials and dissolved in a volume of 97:3 (v/v) acetone/DMSO to obtain 12× stock solutions, and measured amounts of the formulated compounds can be placed individually in 25 mL glass vials and diluted in a volume of 1.5% (v/v) COC or water to obtain 12× stock solutions. […] Application solutions can be prepared by adding an appropriate amount of each stock solution (e.g., 1 mL) and diluted to the appropriate final concentrations with the addition of an appropriate amount of an aqueous mixture of 1.5% (v/v) COC so that the final spray solutions contain 1.25% (v/v) COC. As required, additional water and/or 97:3 (v/v) acetone/DMSO can be added to individual application solutions so that the final acetone and DMSO concentrations of the application solutions being compared are 8.1% and 0.25%, respectively.
(§8) All stock solutions and applications solutions were visually inspected for compound compatibility prior to application. Spray solutions were applied to the soil with an overhead Mandel track sprayer equipped with a 8002E nozzles calibrated to deliver 187 L/ha over an application area of 0.503 m^2 at a spray height of 18 inches (46 cm) above average pot height. […]

[2] = system: BRAPP (Brachiaria platyphylla, broadleaf signalgrass); assay: Pre-emergence soil-applied mixtures, greenhouse; assay type: in vivo, Brachiaria platyphylla (Groseb.) Nash
Source text: as §1, §2, §3, §4, §5, §6, §7, §8

[3] = Compound A Benzyl Ester 16 g ae/ha
[4] = Compound A Benzyl Ester 32 g ae/ha

COc1c(Cl)ccc(-c2nc(C(=O)OCc3ccccc3)c(Cl)c(N)c2F)c1F [Compound A Benzyl Ester, benzyl ester of 4-amino-3-chloro-5-fluoro-6-(4-chloro-2-fluoro-3-methoxy-phenyl)pyridine-2-carboxylic acid]
Visual Weed Control (%) Obs ([1]; 16 g ae/ha): 8% | Visual Weed Control (%) Obs ([1]; 32 g ae/ha): 15% | Visual Weed Control (%)-29 DAA SETFA Obs [1, 3]: 0% | Visual Weed Control (%)-29 DAA SETFA Obs [1, 4]: 0% | Visual Weed Control (%) - 27 DAA BRAPP Obs ([2]; Compound A Benzyl Ester 16 g ae/ha, Table 28): 0% | Visual Weed Control (%)-28 DAA BRAPP Obs [2, 3]: 0% | Visual Weed Control (%) - 27 DAA BRAPP Obs ([2]; Compound A Benzyl Ester 32 g ae/ha, Table 27): 0% | Visual Weed Control (%) - 27 DAA BRAPP Obs ([2]; Compound A Benzyl Ester 32 g ae/ha, Table 28): 0% | Visual Weed Control (%)-28 DAA BRAPP Obs [2, 4]: 5%
